Laboratory results: ChEMBL document CHEMBL1156730, “Structure-activity relationships of new inhibitors of breast cancer resistance protein (ABCG2)” (Bioorg Med Chem, 2008)
pIC50: −log10 of the molar value.

Biological target: T1, Broad substrate specificity ATP-binding cassette transporter ABCG2 (Homo sapiens, UniProt Q9UNQ0)
T1 sequence (Q9UNQ0 whole entry): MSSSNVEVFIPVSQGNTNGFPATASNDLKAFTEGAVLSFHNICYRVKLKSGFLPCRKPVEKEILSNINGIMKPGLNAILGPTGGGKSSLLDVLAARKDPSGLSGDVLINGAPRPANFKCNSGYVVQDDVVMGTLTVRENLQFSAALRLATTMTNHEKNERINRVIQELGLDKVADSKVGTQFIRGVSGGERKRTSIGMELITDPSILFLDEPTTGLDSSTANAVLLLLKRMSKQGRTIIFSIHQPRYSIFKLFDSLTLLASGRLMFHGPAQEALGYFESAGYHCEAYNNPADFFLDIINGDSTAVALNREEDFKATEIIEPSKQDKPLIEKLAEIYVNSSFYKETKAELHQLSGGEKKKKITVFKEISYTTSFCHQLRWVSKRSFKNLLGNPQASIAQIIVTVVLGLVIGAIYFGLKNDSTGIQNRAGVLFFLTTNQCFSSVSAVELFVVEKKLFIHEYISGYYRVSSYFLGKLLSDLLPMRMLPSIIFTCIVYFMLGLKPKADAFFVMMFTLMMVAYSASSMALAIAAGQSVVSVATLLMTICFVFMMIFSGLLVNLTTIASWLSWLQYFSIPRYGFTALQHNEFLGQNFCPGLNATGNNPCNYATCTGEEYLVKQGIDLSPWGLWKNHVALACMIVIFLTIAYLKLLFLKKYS
Experiment: Inhibition of ABCG2 in human mitoxantrone-resistant MCF7 cells at 5.6 uM by Hoechst 33342 assay
Assay type: cell-based
Conditions: mcf7, 5.6 µM; call rule not given here

Row | Compound | Activity
1 | O=C(Nc1ccccc1C(=O)Nc1ccc(CCN2CCc3ccccc3C2)cc1)c1cnc2ccccc2c1 | Active

Biological target: T1, Broad substrate specificity ATP-binding cassette transporter ABCG2
Experiment: Inhibition of ABCG2 in human mitoxantrone-resistant MCF7 cells by Hoechst 33342 assay
Assay type: cell-based
Conditions: not given

Row | Compound | pIC50
2 | COc1cc2c(cc1OC)CN(CCc1ccc(NC(=O)c3ccccc3N)cc1)CC2 | 4.07
3 | CC(=O)[C@H]1CC[C@H]2[C@@H]3CCC4=CC(=O)CC[C@]4(C)[C@H]3CC[C@]12C [PROGESTERONE] | 3.90
4 | COc1ccc(C(=O)Nc2ccccc2C(=O)Nc2ccc(CCN3CCc4cc(OC)c(OC)cc4C3)cc2)cc1OC | 5.68
5 | COc1cc2c(cc1OC)CN(CCc1ccc(NC(=O)c3ccc([N+](=O)[O-])cc3)cc1)CC2 | 5.12
6 | COc1cc2c(cc1OC)CN(CCc1ccc(NC(=O)c3cccc(Br)c3)cc1)CC2 | 4.64
7 | COc1cc2c(cc1OC)CN(CCc1ccc(NC(=O)C3Oc4ccccc4O3)cc1)CC2 | 4.82
8 | COc1cc2c(cc1OC)CN(CCc1ccc(NC(=O)c3cc(OC)c(OC)cc3NC(=O)c3cnc4ccccc4c3)cc1)CC2 | 5.84
9 | COc1cc2c(cc1OC)CN(CCc1ccc(NC(=O)c3cccc4ccccc34)cc1)CC2 | 4.89
10 | Nc1ccc(C(=O)Nc2ccc(CCN3CCc4ccccc4C3)cc2)cc1 | 4.11
11 | O=C(Nc1ccc(CCN2CCc3ccccc3C2)cc1)c1cnc2ccccc2c1 | 5.30
12 | COc1ccc(CCN(C)CCCC(C#N)(c2ccc(OC)c(OC)c2)C(C)C)cc1OC (stereo unspecified) | 3.28
13 | COc1cc2c(cc1OC)CN(CCc1ccc(NC(=O)c3cnc4ccccc4n3)cc1)CC2 | 5.22
14 | COc1cc2c(cc1OC)CN(CCc1ccc(NC(=O)c3cnc4ccccc4c3)cc1)CC2 | 4.62
15 | O=C(Nc1ccccc1C(=O)Nc1ccc(CCN2CCc3ccccc3C2)cc1)c1cnc2ccccc2c1 | 6.00
16 | COC(=O)[C@H]1[C@H]2C[C@@H]3c4[nH]c5cc(OC)ccc5c4CCN3C[C@H]2C[C@@H](OC(=O)c2cc(OC)c(OC)c(OC)c2)[C@@H]1OC [RESERPINE] | 4.58
17 | COC(=O)C1=C(C)NC(C)=C(C(=O)OCCN(C)Cc2ccccc2)C1c1cccc([N+](=O)[O-])c1 (stereo unspecified) [NICARDIPINE] | 4.78
18 | COc1cc2c(cc1OC)CN(CCc1ccc(NC(=O)c3ccccc3NC(=O)c3cnc4ccccc4c3)cc1)CC2 | 5.30
19 | COc1cc2c(cc1OC)CN(CCc1ccc(NC(=O)c3ccnc4ccccc34)cc1)CC2 | 4.44

Row | Compound | pIC50
20 | COc1cc2c(cc1OC)CN(CCc1ccc(NC(=O)c3ccc(N)cc3)cc1)CC2 | 3.58
21 | COc1cc2c(cc1OC)CN(CCc1ccc(NC(=O)c3ccc(Br)cc3)cc1)CC2 | 4.94
22 | COc1cc2c(cc1OC)CN(CCc1ccc(NC(=O)c3ccccc3NC(=O)c3ccc(C)cc3)cc1)CC2 | 5.41
23 | COc1ccc([C@@H]2Sc3ccccc3N(CCN(C)C)C(=O)[C@@H]2OC(C)=O)cc1 [DILTIAZEM] | 3.07
24 | O=C(Nc1ccc(CCN2CCc3ccccc3C2)cc1)c1ccc([N+](=O)[O-])cc1 | 5.18
25 | COc1ccc(C(=O)Nc2ccc(CCN3CCc4cc(OC)c(OC)cc4C3)cc2)cc1OC | 4.32
26 | COc1cc2c(cc1OC)CN(CCc1ccc(NC(=O)c3cccnc3)cc1)CC2 | 4.35
27 | COc1cc2c(cc1OC)CN(CCc1ccc(NC(=O)c3ccc4ccccc4c3)cc1)CC2 | 5.14
28 | COc1cc2c(cc1OC)CN(CCc1ccc(NC(=O)c3ccccc3)cc1)CC2 | 4.61
29 | COc1cc2c(cc1OC)CN(CCc1ccc(NC(=O)c3ccc4ncccc4c3)cc1)CC2 | 4.84
30 | COc1cc2c(cc1OC)CN(CCc1ccc(NC(=O)c3cc4ccccc4cn3)cc1)CC2 | 5.22
31 | COc1cc2c(cc1OC)CN(CCc1ccc(NC(=O)c3ccccc3NC(=O)c3ccccc3)cc1)CC2 | 5.40
32 | COc1cc2c(cc1OC)CN(CCc1ccc(NC(=O)c3ccccc3[N+](=O)[O-])cc1)CC2 | 3.96
33 | O=C(Nc1ccc(CCN2CCc3ccccc3C2)cc1)c1ccccc1[N+](=O)[O-] | 4.10
34 | COc1cc2c(cc1OC)CN(CCc1ccc(NC(=O)c3ccccc3Br)cc1)CC2 | 4.66
35 | Nc1ccccc1C(=O)Nc1ccc(CCN2CCc3ccccc3C2)cc1 | 4.13
36 | COc1cc2c(cc1OC)CN(CCc1ccc(NC(=O)c3cc(OC)c(OC)cc3[N+](=O)[O-])cc1)CC2 | 4.19

Biological target: T1, Broad substrate specificity ATP-binding cassette transporter ABCG2
Experiment: Inhibition of ABCG2 in human mitoxantrone-resistant MCF7 cells by Hoechst 33342 assay using linear regression analysis
Assay type: cell-based
Conditions: not given

Row | Compound | pIC50
37 | O=C(Nc1ccccc1C(=O)Nc1ccc(CCN2CCc3ccccc3C2)cc1)c1cnc2ccccc2c1 | 6.08

Biological target: ATP-dependent translocase ABCB1 (Homo sapiens, UniProt P08183)
Sequence (P08183 whole entry): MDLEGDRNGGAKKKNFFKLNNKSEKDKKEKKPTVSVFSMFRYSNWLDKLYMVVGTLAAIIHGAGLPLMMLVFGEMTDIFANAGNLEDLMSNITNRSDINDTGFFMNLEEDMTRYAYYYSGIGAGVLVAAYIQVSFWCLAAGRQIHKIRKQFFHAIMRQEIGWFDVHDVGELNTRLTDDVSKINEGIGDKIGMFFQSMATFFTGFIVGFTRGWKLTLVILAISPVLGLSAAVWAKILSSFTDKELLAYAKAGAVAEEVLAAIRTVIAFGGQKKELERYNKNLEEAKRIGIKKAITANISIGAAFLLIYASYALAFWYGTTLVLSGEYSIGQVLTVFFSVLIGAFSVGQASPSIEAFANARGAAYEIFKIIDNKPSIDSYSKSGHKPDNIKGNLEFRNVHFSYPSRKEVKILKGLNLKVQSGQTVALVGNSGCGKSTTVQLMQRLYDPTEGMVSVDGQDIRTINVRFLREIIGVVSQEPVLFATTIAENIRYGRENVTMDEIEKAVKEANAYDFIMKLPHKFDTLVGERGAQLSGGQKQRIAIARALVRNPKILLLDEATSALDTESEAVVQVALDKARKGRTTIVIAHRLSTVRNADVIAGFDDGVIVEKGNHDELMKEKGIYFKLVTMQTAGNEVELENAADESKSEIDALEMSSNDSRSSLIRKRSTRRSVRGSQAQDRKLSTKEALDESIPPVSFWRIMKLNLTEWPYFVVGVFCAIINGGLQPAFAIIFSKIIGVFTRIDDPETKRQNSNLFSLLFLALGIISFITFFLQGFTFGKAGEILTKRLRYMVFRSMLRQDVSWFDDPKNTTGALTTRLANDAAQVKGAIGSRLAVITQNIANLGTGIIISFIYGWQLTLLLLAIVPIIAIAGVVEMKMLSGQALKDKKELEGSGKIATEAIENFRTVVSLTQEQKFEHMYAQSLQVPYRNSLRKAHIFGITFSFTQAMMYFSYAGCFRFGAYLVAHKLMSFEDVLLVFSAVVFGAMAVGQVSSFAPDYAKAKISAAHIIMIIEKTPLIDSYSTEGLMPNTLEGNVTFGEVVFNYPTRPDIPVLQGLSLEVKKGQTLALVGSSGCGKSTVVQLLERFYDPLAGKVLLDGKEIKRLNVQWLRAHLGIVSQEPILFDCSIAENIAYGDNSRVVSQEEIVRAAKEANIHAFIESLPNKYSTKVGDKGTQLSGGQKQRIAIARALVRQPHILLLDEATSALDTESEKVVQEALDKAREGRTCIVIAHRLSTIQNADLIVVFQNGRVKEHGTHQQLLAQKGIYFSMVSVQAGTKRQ
Experiment: Inhibition of P-gp in human adriamycin-resistant A2780 cells by Hoechst 33342 assay
Assay type: cell-based
Conditions: not given

Row | Compound | pIC50
38 | COc1cc2c(cc1OC)CN(CCc1ccc(NC(=O)C3Oc4ccccc4O3)cc1)CC2 | 5.85
39 | COc1cc2c(cc1OC)CN(CCc1ccc(NC(=O)c3cc(OC)c(OC)cc3NC(=O)c3cnc4ccccc4c3)cc1)CC2 | 7.14
40 | COc1cc2c(cc1OC)CN(CCc1ccc(NC(=O)c3ccccc3)cc1)CC2 | 5.32

Biological target: T1, Broad substrate specificity ATP-binding cassette transporter ABCG2
Experiment: Inhibition of ABCG2 in human mitoxantrone-resistant MCF7 cells by Hoechst 33342 assay using one phase exponential association analysis
Assay type: cell-based
Conditions: not given

Row | Compound | pIC50
41 | O=C(Nc1ccccc1C(=O)Nc1ccc(CCN2CCc3ccccc3C2)cc1)c1cnc2ccccc2c1 | 6.17
